Test system: mouse antiserum
Assay: ic-ELISA serum titer and inhibition rate of mice for the fusion experiment (Table S2)
Assay type: binding
Details: prometryn 1000 ng/mL
Procedure: The Institute of Quality Standards and Testing Technology for Agro-Products’ Experimental Animal Welfare and Ethical Committee (IQSTAP-2021-05) approved the use of animals in experiments. The buffer solution (0.01 M PBS, pH = 7.4) was used to dilute the immunogen (2 mg/mL) to 1 mg/mL. After that, Freund’s adjuvant was added to an identical volume of 0.1 mL in a sterile glass vial. The mixture was placed on a magnetic stirrer and stirred and mixed rapidly in an ice bath to fully emulsify. Six 7-week-old female BALB/c mice were selected for immunization. At the beginning of the third immunization, 3–5 days after each immunization, blood was taken from the orbit, incubated at 37 °C for 0.5 h and 4 °C for 2 h, and centrifuged at 1000 r/min for 10 min. Serum was collected, and the serum titer was determined. The immune strategy of mice was the same as that previously reported. Freund’s […] vaccination, and for the subsequent booster vaccination, Freund’s incomplete adjuvant was utilized. Freund’s adjuvant and immunogen during immunization should be 1:1 and thoroughly mixed until dripping into the water to prevent diffusion. The interval of booster immunization was 2 weeks, and the immune dose was 0.1 mg. Three days before fusion, the mice with the best performance were immunized with a dose of 0.05 mg. The mice were intraperitoneally injected without adjuvant.
The ic-ELISA method was used to screen the best-performing fusion mouse sera. They were used to establish the standard curve of antibodies by detecting the supernatant of positive cells. The buffer required for ic-ELISA was the same as previously reported. The specific steps of the operation are as follows: (1) The coated antigen was added to the microplate by diluting it with the required coating solutions (CBS, pH 9.6, 0.05 mol/L). Each well contained 100 µL, which was incubated at 37 °C for three h before being washed three times with washing buffer (PBST, PBS containing 0.1% Tween-20). (2) With sample dilution buffer (PBSTG, PBST containing 0.1% gelatin), the standard prometryn sample and the antiserum/antibody from mice were diluted to the required concentration. The microplate was incubated for 30 min at 37 °C with 50 µL of diluted antiserum or antibody and standard samples of various concentrations. PBST was used three times to wash the dishes. (3) Then, 100 µL of PBSTG-diluent IgG HRP (labeled goat anti-mouse IgG with HRP) was added to each well. After 30 min at 37 °C, the plate was cleaned three times with PBST. (4) Each well was incubated for 15 min in the dark at 25 °C with 100 µL of TMB color developing solution. To stop the reaction, 50 µL of the hydrochloric acid solution was added to each well. The absorbance at OD450 nm was measured with a TECAN Infinite M200 PRO microplate reader from Männedorf, Switzerland.
Ic-ELISA was used to measure the inhibition rate and serum titer of six immunized mice. Three days before cell fusion, Balb/c mice with the highest performance were selected and immunized. SP2/0 myeloma cells and mouse spleen cells were combined for fusion. After fusion, the supernatant of hybridoma cells was determined by indirect competitive enzyme-linked immunosorbent assay, the positive wells were screened, and the hybridoma cells were cloned to obtain hybridoma cell lines that can stably secrete monoclonal antibodies against prometryn. After the positive cell lines were expanded and cultured, mice treated with paraffin 7 days earlier were injected intraperitoneally. Ascites were collected after abdominal swelling and centrifuged at 4 °C at 1000 rpm, and the potency and inhibition rate of ascites were determined and frozen at −20 °C for purification. The 7D4 mAb against prometryn was obtained by purifying the […] with the octanoic acid-saturated ammonium sulfate method. […]

CSc1nc(NC(C)C)nc(NC(C)C)n1 [Prometryn, 2-methylthio-4,6-di(isopropylamino)-1,3,5-triazobenzene]
IR (inhibition rate) (dilution of immunogen 1×103, serum dilution 1.28×105): -7.66%
IR (inhibition rate) (dilution of immunogen 1×103, serum dilution 1.6×104): 65.86%
IR (inhibition rate) (dilution of immunogen 1×103, serum dilution 2×103): 85.70%
IR (inhibition rate) (dilution of immunogen 1×103, serum dilution 2.56×105): 75.15%
IR (inhibition rate) (dilution of immunogen 1×103, serum dilution 3.2×104): 46.44%
IR (inhibition rate) (dilution of immunogen 1×103, serum dilution 4×103): 88.04%
IR (inhibition rate) (dilution of immunogen 1×103, serum dilution 6.4×104): 35.52%
IR (inhibition rate) (dilution of immunogen 1×103, serum dilution 8×103): 81.46%
IR (inhibition rate) (dilution of immunogen 1.6×104, serum dilution 1.28×105): -52.80%
IR (inhibition rate) (dilution of immunogen 1.6×104, serum dilution 1.6×104): 58.64%
IR (inhibition rate) (dilution of immunogen 1.6×104, serum dilution 2×103): 85.05%
IR (inhibition rate) (dilution of immunogen 1.6×104, serum dilution 2.56×105): 71.56%
IR (inhibition rate) (dilution of immunogen 1.6×104, serum dilution 3.2×104): 28.55%
IR (inhibition rate) (dilution of immunogen 1.6×104, serum dilution 4×103): 82.62%
IR (inhibition rate) (dilution of immunogen 1.6×104, serum dilution 6.4×104): 11.18%
IR (inhibition rate) (dilution of immunogen 1.6×104, serum dilution 8×103): 81.51%
IR (inhibition rate) (dilution of immunogen 2×103, serum dilution 1.28×105): 14.21%
IR (inhibition rate) (dilution of immunogen 2×103, serum dilution 1.6×104): 61.99%
IR (inhibition rate) (dilution of immunogen 2×103, serum dilution 2×103): 85.14%
IR (inhibition rate) (dilution of immunogen 2×103, serum dilution 2.56×105): 74.90%
IR (inhibition rate) (dilution of immunogen 2×103, serum dilution 3.2×104): 51.64%
IR (inhibition rate) (dilution of immunogen 2×103, serum dilution 4×103): 86.95%
IR (inhibition rate) (dilution of immunogen 2×103, serum dilution 6.4×104): 10.11%
IR (inhibition rate) (dilution of immunogen 2×103, serum dilution 8×103): 79.58%
IR (inhibition rate) (dilution of immunogen 3.2×104, serum dilution 1.28×105): 17.80%
IR (inhibition rate) (dilution of immunogen 3.2×104, serum dilution 1.6×104): 74.44%
IR (inhibition rate) (dilution of immunogen 3.2×104, serum dilution 2×103): 84.75%
IR (inhibition rate) (dilution of immunogen 3.2×104, serum dilution 2.56×105): 72.21%
IR (inhibition rate) (dilution of immunogen 3.2×104, serum dilution 3.2×104): 51.77%
IR (inhibition rate) (dilution of immunogen 3.2×104, serum dilution 4×103): 68.48%
IR (inhibition rate) (dilution of immunogen 3.2×104, serum dilution 6.4×104): 28.68%
IR (inhibition rate) (dilution of immunogen 3.2×104, serum dilution 8×103): 80.75%
IR (inhibition rate) (dilution of immunogen 4×103, serum dilution 1.28×105): 7.62%
IR (inhibition rate) (dilution of immunogen 4×103, serum dilution 1.6×104): 63.91%
IR (inhibition rate) (dilution of immunogen 4×103, serum dilution 2×103): 86.78%
IR (inhibition rate) (dilution of immunogen 4×103, serum dilution 2.56×105): 78.43%
IR (inhibition rate) (dilution of immunogen 4×103, serum dilution 3.2×104): 47.70%
IR (inhibition rate) (dilution of immunogen 4×103, serum dilution 4×103): 87.39%
IR (inhibition rate) (dilution of immunogen 4×103, serum dilution 6.4×104): 24.90%
IR (inhibition rate) (dilution of immunogen 4×103, serum dilution 8×103): 81.74%
IR (inhibition rate) (dilution of immunogen 8×103, serum dilution 1.28×105): 7.17%
IR (inhibition rate) (dilution of immunogen 8×103, serum dilution 1.6×104): 58.20%
IR (inhibition rate) (dilution of immunogen 8×103, serum dilution 2×103): 87.26%
IR (inhibition rate) (dilution of immunogen 8×103, serum dilution 2.56×105): 59.68%
IR (inhibition rate) (dilution of immunogen 8×103, serum dilution 3.2×104): 15.68%
IR (inhibition rate) (dilution of immunogen 8×103, serum dilution 4×103): 84.15%
IR (inhibition rate) (dilution of immunogen 8×103, serum dilution 6.4×104): 7.82%
IR (inhibition rate) (dilution of immunogen 8×103, serum dilution 8×103): 76.22%

From publication PMC9855386, “Obtaining a Monoclonal Antibody against a Novel Prometryn-Like Hapten and Characterization of Its Selectivity for Triazine Herbicides” (Biosensors, 2022)
